In patent publication US20240150377A1, “MODULATORS OF CYSTIC FIBROSIS TRANSMEMBRANE CONDUCTANCE REGULATOR” (VERTEX PHARMACEUTICALS INCORPORATED, priority 2020, published 2024):

Target: T1, CFTR (Homo sapiens, UniProt P13569, DEL508-508)
T1 construct: endogenous in cells; host or cells: primary human bronchial epithelial cells from CF subjects (F508del/MF-HBE), differentiated at air-liquid interface
Assay: HBE2 assay: Ussing chamber assay of CFTR-mediated short-circuit currents
Format: cell-based
Conditions: F508del/MF-HBE cells, with 44 nM potentiator, 18-24 hours, 20% human serum
Method in brief: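 Corrector activity read as CFTR-dependent ISC (μA/cm^2): peak forskolin current minus post-inhibitor steady state. Measured at 37 °C, voltage clamp at 0 mV, on F508del/MF-HBE epithelia grown >14 days air-liquid interface in Ussing chambers.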

T1 sequence (P13569 with tags, fused parts or gaps DEL508-508): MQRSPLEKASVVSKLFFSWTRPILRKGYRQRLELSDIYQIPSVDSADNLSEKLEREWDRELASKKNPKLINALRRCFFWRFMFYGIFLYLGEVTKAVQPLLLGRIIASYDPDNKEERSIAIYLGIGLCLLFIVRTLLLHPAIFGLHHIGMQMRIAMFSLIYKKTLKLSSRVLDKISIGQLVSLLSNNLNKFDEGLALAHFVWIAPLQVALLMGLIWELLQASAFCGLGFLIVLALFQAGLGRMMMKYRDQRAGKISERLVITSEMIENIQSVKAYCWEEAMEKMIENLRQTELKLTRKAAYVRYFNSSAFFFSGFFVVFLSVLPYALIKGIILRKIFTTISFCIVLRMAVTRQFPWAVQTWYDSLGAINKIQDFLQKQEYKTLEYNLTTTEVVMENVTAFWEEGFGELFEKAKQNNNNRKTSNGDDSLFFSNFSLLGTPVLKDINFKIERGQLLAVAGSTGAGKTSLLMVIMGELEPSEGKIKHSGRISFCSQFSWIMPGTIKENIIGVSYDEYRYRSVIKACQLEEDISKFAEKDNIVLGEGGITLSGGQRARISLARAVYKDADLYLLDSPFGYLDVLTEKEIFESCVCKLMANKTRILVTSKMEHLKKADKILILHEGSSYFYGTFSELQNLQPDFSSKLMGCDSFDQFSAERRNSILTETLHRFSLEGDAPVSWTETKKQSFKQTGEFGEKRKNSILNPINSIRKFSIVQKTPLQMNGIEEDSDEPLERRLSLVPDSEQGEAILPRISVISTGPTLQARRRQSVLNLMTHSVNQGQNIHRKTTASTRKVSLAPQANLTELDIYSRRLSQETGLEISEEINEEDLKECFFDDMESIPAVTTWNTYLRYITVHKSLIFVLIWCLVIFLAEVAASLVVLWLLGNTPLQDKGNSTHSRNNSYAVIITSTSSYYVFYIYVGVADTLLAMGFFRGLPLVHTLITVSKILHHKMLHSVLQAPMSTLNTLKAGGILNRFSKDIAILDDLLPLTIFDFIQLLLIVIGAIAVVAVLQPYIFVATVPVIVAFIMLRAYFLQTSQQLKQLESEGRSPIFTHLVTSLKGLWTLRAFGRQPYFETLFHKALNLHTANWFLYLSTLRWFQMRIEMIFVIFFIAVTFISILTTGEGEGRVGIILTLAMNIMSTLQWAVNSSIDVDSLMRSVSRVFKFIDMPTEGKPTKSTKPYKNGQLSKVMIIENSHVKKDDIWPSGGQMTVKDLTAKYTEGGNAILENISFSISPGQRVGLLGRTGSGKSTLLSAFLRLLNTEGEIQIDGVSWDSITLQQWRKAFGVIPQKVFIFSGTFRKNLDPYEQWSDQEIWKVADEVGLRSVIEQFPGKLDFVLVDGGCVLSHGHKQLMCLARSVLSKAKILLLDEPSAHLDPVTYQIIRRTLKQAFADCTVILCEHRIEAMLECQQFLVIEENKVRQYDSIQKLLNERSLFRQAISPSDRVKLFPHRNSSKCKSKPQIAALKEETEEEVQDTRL

HBE2 Activity at 3 μM (%) (3 μM)	HBE2 Activity at 3 μM (%) (3 μM corrector)	Structure (SMILES)	other results
+++ (+++ is >60+)	–	CC[C@@H](C)Oc1cnc(CN2C(=O)c3cccc(c3)S(=O)(=O)Nc3nc(cc(-c4c(C)cccc4C)n3)OC[C@H]2CC2CCC2)nc1 [Compound 1556]	–
–	+++ (+++ is >60+)	CC[C@H]1CCN1c1cncc(CN2C(=O)c3cccc(c3)S(=O)(=O)Nc3nc(cc(-c4c(C)cccc4C)n3)OC[C@H]2CCC(C)(C)C)n1 [Compound 1864]	–
+++ (+++ is >60+)	–	Cc1cccc(C)c1-c1cc2nc(n1)NS(=O)(=O)c1cccc(c1)C(=O)N(Cc1cncc(N(C)C3CCC3)n1)[C@H](C(C)C)CO2 [Compound 1690]	–
–	+++ (+++ is >60+)	Cc1cccc(C)c1-c1cc2nc(n1)NS(=O)(=O)c1cccc(c1)C(=O)N(Cc1cnc3cc(C(C)C)n(C)c3n1)[C@H](COC(C)C)CO2 [Compound 1919]	–
–	+++ (+++ is >60+)	Cc1cccc(C)c1-c1cc2nc(n1)NS(=O)(=O)c1cccc(c1)C(=O)N(Cc1cncc(N3CC[C@H]3C(C)C)n1)[C@H](CCC(C)(C)C)CO2 [Compound 1797]	–
–	+++ (+++ is >60+)	Cc1cccc(C)c1-c1cc2nc(n1)NS(=O)(=O)c1cccc(c1)C(=O)N(Cc1cncc(N(C)CC(C)C)n1)[C@H](CCC(C)(C)C)CO2 [Compound 1791]	–
+++ (+++ is >60+)	–	CC(=O)N(C)CCN(C)c1cncc(CN2C(=O)c3cccc(c3)S(=O)(=O)Nc3nc(cc(-c4c(C)cccc4C)n3)OC[C@H]2CC(C)(C)C)n1 [Compound 1661]	–
–	+++ (+++ is >60+)	Cc1cccc(C)c1-c1cc2nc(n1)NS(=O)(=O)c1cccc(c1)C(=O)N(Cc1cncc(N3CCC[C@@H]3C)n1)[C@H](COC1CC1)CO2 (stereo in doubt) [Compound 1892]	–
–	+++ (+++ is >60+)	Cc1cccc(C)c1-c1cc2nc(n1)NS(=O)(=O)c1cccc(c1)C(=O)N(Cc1cncc(N(C)[C@H]3C[C@H](F)C3)n1)[C@H](CCC(C)C)CO2 [Compound 1914]	–
+++ (+++ is >60+)	–	COC[C@H]1C[C@@H](N(C)c2cncc(CN3C(=O)c4cccc(c4)S(=O)(=O)Nc4nc(cc(-c5c(C)cccc5C)n4)OC[C@H]3CC(C)(C)C)n2)C1 [Compound 1619]	–
–	+++ (+++ is >60+)	CCc1cc2ncc(CN3C(=O)c4cccc(c4)S(=O)(=O)Nc4nc(cc(-c5c(C)cccc5C)n4)OC[C@H]3CC(C)(C)C)nc2n1C [Compound 1911]	–
–	+++ (+++ is >60+)	Cc1cccc(C)c1-c1cc2nc(n1)NS(=O)(=O)c1cccc(c1)C(=O)N(Cc1cccc(N3CCC[C@H]3C)n1)[C@H](COC(C)C)CO2 [Compound 1954]	–
–	+++ (+++ is >60+)	Cc1cccc(C)c1-c1cc2nc(n1)NS(=O)(=O)c1cccc(c1)C(=O)N(Cc1cncc(N3CCCC4CCC43)n1)[C@H](CCC(C)(C)C)CO2 (stereo in doubt) [Compound 1782]	–
+++ (+++ is >60+)	–	CCN(C)c1cncc(CN2C(=O)c3cccc(c3)S(=O)(=O)Nc3nc(cc(-c4c(C)cccc4C)n3)OC[C@H]2CC(C)(C)C)n1 [Compound 1695]	–
–	+++ (+++ is >60+)	Cc1cccc(C)c1-c1cc2nc(n1)NS(=O)(=O)c1cccc(c1)C(=O)N(Cc1cncc(N(C)[C@H]3C[C@H](F)C3)n1)[C@H](COC1CC1)CO2 [Compound 1907]	–
+++ (+++ is >60+)	–	Cc1cccc(C)c1-c1cc2nc(n1)NS(=O)(=O)c1cccc(c1)C(=O)N(Cc1cncc(N3CCC4OCCC43)n1)[C@H](CC(C)(C)C)CO2 (some centres unmarked) [Compound 1643]	–
+++ (+++ is >60+)	–	Cc1cccc(C)c1-c1cc2nc(n1)NS(=O)(=O)c1cccc(c1)C(=O)N(Cc1cncc(N(C)C3CCC3)n1)[C@H](CC(C)C)CO2 [Compound 1671]	EC50: < 1 µM; Emax (read-out: HBE2 Max activity (%)): > 60%
++ (++ is 30-60%)	–	Cc1cccc(C)c1-c1cc2nc(n1)NS(=O)(=O)c1cccc(c1)C(=O)N(Cc1cncc(N3CCC4NC(=O)CC43)n1)[C@H](CC(C)(C)C)CO2 (stereo in doubt) [Compound 1621]	–
